From PubChem BioAssay (NCI)
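The compound was tested at five concentrations on cells cultured in 96-well plates, with a 48-hour exposure period. GI50 marks 50% less growth. TGI marks complete inhibition of growth.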

Tests used:
Assay in all cases: growth of human tumour cells (NCI), 48 h
CAKI-1 renal = test system: CAKI-1 renal
DU-145 prostate = test system: DU-145 prostate
HOP-92 NSCLC = test system: HOP-92 NSCLC
HT29 colon = test system: HT29 colon
K-562 leukemia = test system: K-562 leukemia
NCI-H522 lung = test system: NCI-H522 lung
RPMI-8226 leukemia = test system: RPMI-8226 leukemia
SF-295 CNS = test system: SF-295 CNS
SN12C renal = test system: SN12C renal
U251 CNS = test system: U251 CNS
COLO 205 colon = test system: COLO 205 colon

| Structure (SMILES) | TGI (CAKI-1 renal) [µM] | TGI (DU-145 prostate) [µM] | TGI (HOP-92 NSCLC) [µM] | TGI (HT29 colon) [µM] | TGI (K-562 leukemia) [µM] | TGI (NCI-H522 lung) [µM] | TGI (RPMI-8226 leukemia) [µM] | TGI (SF-295 CNS) [µM] | TGI (SN12C renal) [µM] | TGI (U251 CNS) [µM] | TGI (COLO 205 colon) [µM] | GI50 (DU-145 prostate) [µM] | GI50 (HOP-92 NSCLC) [µM] | GI50 (HT29 colon) [µM] | GI50 (K-562 leukemia) [µM] | GI50 (NCI-H522 lung) [µM] | GI50 (SN12C renal) [µM] | GI50 (U251 CNS) [µM] |
| --- | --- | --- | --- | --- | --- | --- | --- | --- | --- | --- | --- | --- | --- | --- | --- | --- | --- | --- |
| Cc1sc2nc(-c3cc([N+](=O)[O-])c(Cl)cc3Cl)c(/C=N/N=C(N)N)n2c1C | 33.9 | 39.1 | 31.5 | 9 | 9.95 | 34.2 | 54 | 36.4 | 28.5 | > 100 |  |  |  |  |  |  |  |  |
| CC(C)=CC(=O)O[C@H]1C(=O)O[C@@H]2C[C@H]3[C@H](C)C(=O)C(O[C@@H]4O[C@H](CO)[C@@H](O)[C@H](O)[C@H]4O)=C[C@]3(C)[C@H]3[C@@H](O)[C@H](O)[C@]4(C(=O)O)OC[C@]32[C@@H]14 | > 100 | > 100 | > 100 | > 100 | > 100 | 52.6 |  |  | > 100 | > 100 | > 100 | > 100 | 31.4 | 35.6 | 25.8 | 29 | > 100 | 40 |
| Cc1ccnc2[nH]c(-c3cccc(Cl)c3)cc(=O)c12 | > 47.8 | > 100 | > 100 | > 100 |  | > 100 |  | > 100 | > 100 |  |  |  |  |  |  |  |  |  |
| O=C1C(NCCc2ccc(O)c(O)c2)=CC(=O)c2ncccc21 | 21.5 | 24 | 54.3 | > 93.3 | 20.2 | 7.31 | > 70 | 28.5 | 34.4 | 12.8 | 28 |  |  |  |  |  |  |  |
| [Se]=P(c1ccccc1)(c1ccccc1)c1ccc(C(c2ccccc2)=P(c2ccccc2)(c2ccccc2)c2ccccc2)cc1 | 8.5 | 14.5 | 1.91 | 2.17 | 3.33 | 1.7 | 8.05 | 10.2 | 10.2 | 5.25 | 0.659 |  |  |  |  |  |  |  |
| O=C1C(F)=CC(COC(c2ccccc2)(c2ccccc2)c2ccccc2)OC1n1cc(F)c(=O)[nH]c1=O (centres undefined) | 9.09 | > 34.2 | 5.52 | 1.59 | > 100 | 3.1 | 1.31 | 5.06 | 4.29 | 4.71 | > 21.5 |  |  |  |  |  |  |  |
| O=C1Sc2ccc(Br)cc2C(=O)Sc2ccccc21 | 29.4 | 25.5 | 33.6 | 35.3 | > 59.3 | 22.1 | 16.7 | 57.5 | 34.8 | 27.6 | 28.4 |  |  |  |  |  |  |  |
| C1CSCCCSCCSCCCSC1 | > 100 | > 100 | > 100 | > 100 | > 100 | > 100 | > 100 | > 100 | > 100 | > 100 | > 100 |  |  |  |  |  |  |  |
| C/C(=N/NC(=S)Nc1ccccc1Cl)c1cccc(/C(C)=N\NC(=S)Nc2ccccc2Cl)n1 | > 100 | > 100 | > 100 | > 100 | > 100 | > 100 | > 100 | > 100 | > 100 | > 100 | > 100 |  |  |  |  |  |  |  |
